What was measured:
[1] = system: human breast adenocarcinoma MDA-MB-231 cell line; assay: Cytotoxicity: cell growth inhibition in cultures, viable cells counted by trypan blue exclusion; format: cell-based; settings: for inhibition at 0.04 µM / inhibition at 1 µM / inhibition at 0.1 µM / inhibition at 0.01 µM / inhibition at 0.001 µM / inhibition at 0.0001 µM / inhibition at 10 pM: Homo sapiens; for inhibition at 0.04 µM / inhibition at 1 µM / inhibition at 0.1 µM / inhibition at 0.01 µM / inhibition at 0.001 µM / inhibition at 0.0001 µM: MDA-MB-231, sodium salt in saline; for inhibition at 0.04 µM / inhibition at 1 µM / inhibition at 0.1 µM / inhibition at 0.01 µM / inhibition at 0.001 µM / inhibition at 0.0001 µM / inhibition at 10 pM / number of living cells / cell growth inhibition: day 1, three days; for inhibition at 1 µM / cell growth inhibition: final 10^−6 mol/L (top of range 10^−11 M to 10^−6 M); for inhibition at 10 pM: MDA-MB-231, sodium salt of the compound dissolved in saline (1 mg/ml); for Cell growth inhibition % Formulation: compound/paclitaxel formulations in saline; for Cell growth inhibition % OF W/SAB / Cell growth inhibition % OF SAB/W: dried compound/paclitaxel mixed-micellar system (OF); for Cell growth inhibition % OF W/SAB: freeze-dried as water solution, reconstituted with 0.05 M sodium acetate buffer; for Cell growth inhibition % OF SAB/W: freeze-dried in 0.05 M sodium acetate buffer, reconstituted with water
Procedure: The cell line was propagated by cultivation in Nunclon 25 cm^2 flasks (Nunc A/S, Denmark) in Minimum Essential Medium Eagle (MEM), containing antibiotics and supplemented with 10% (v/v) fetal bovine serum (FBS) (Sigma, St. Louis, Mo., USA). The cultures were maintained in growth medium at 37° C. in a humidified atmosphere, 95% air and 5% CO2.
A suspension of tumour cells (60×10^3 cells/mL) was prepared in MEM with 5% FBS and antibiotics. Cell suspension (200 μL) was seeded in wells of Nunclon 96-microwell plates (Nunc A/S, Denmark) at a density of 12×10^3 cell/well. The solutions of the drugs to be tested were added to the cultures on day 0 or day 1 in volumes of 2 μL. In all cases the cells were incubated for 3 days.
At the end of the incubation period, adherent cells were detached by trypsinization and the number of viable cells was counted using trypan blue dye exclusion test and a hemocytometer.
All experiments were performed at least twice and the cells counts were done in triplicate for each drug concentration. Each control and test series consisted of 6-8 cultures. The results are expressed as mean cell number ±SD and the differences between control and test series were evaluated by means of Student's t-test. The cytotoxicity of each tested drug was evaluated by the extent of cell growth inhibition. The Cell growth inhibition was evaluated as follows:
Cell growth inhibition, %=- - - ×100

[2] = Solubility of compounds and formulations; format: physicochemical; settings: for solubility in solvents: sodium salts
Procedure: The obtained solution can be stored for at least three months at low temperatures, without noticeable change in the properties of compound (I-VI). Moreover, the formulation retains its cytotoxic effects during prolonged storage. Before use, the solution is evaporated in vacuo to yield a waxy solid which is dissolved in saline or other commonly used vehicle for intravenous infusion to a patient. […] An ethanol solution is prepared of one of N-(all-trans-Retinoyl)-L-cysteic acid (I), N-(13-cis-Retinoyl)-L-cysteic acid (11), N-(all-trans-Retinoyl)-L-homocysteic acid (III), N-(13-cis-Retinoyl)-L-homocysteic acid (IV), N-(all-trans-Retinoyl)-L-cysteinesulfinic acid (V), or N-(13-cis-Retinoyl)-L-cysteinesulfinic acid (VI). The obtained solution is evaporated in vacuo to give waxy solid, whereupon Taxol® is added, dissolving the waxy solid. […]

[3] = final concentration 10^−11 mol/L
[4] = sodium salt in saline, final 4 × 10^−8 mol/L
[5] = sodium salt in saline, final 10^−6 mol/L
[6] = sodium salt in saline, final 10^−7 mol/L
[7] = sodium salt in saline, final 10^−8 mol/L
[8] = sodium salt in saline, final 10^−9 mol/L
[9] = sodium salt in saline, final 10^−10 mol/L
[10] = sodium salt of the compound dissolved in saline (1 mg/ml), final concentration 10^−11 mol/L

With `CC1=C(/C=C/C(C)=C/C=C/C(C)=C\C(=O)N[C@@H](CCS(=O)(=O)O)C(=O)O)C(C)(C)CCC1` [Compound IV, N-(13-cis-Retinoyl)-L-homocysteic acid] as the compound, how does the inhibition at 0.04 µM ([1]; final 4 × 10^−8 mol/L) read?
The inhibition at 0.04 µM was 29.6%.

What about the inhibition at 1 µM [1] of the same compound?
The inhibition at 1 µM was 31.9%.

And the inhibition at 0.1 µM ([1]; final 10^−7 mol/L)?
The inhibition at 0.1 µM was 31.1%.

And the inhibition at 0.01 µM ([1]; final 10^−8 mol/L)?
Its inhibition at 0.01 µM is 24.9%.

And the inhibition at 0.001 µM ([1]; final 10^−9 mol/L)?
Its inhibition at 0.001 µM is 17.3%.

And the inhibition at 0.0001 µM ([1]; final 10^−10 mol/L)?
The inhibition at 0.0001 µM was 16.1%.

What about the inhibition at 10 pM [1, 3] of the same compound?
Its inhibition at 10 pM is 14.8%.

And the “Cell growth inhibition % Formulation” value [1]?
Its value is “close to 60%”.

And the “Cell growth inhibition % OF W/SAB” value [1]?
Its value is “close to 62%”.

What about the “Cell growth inhibition % OF SAB/W” value [1] of the same compound?
The value was “close to 63%”.

What about the “number of living cells” value [1, 4] of the same compound?
Its value is 37.1 ± 2.56 × 10^3.

And the cell growth inhibition ([1]; sodium salt in saline)?
The cell growth inhibition was roughly 35%.

What about the “number of living cells” value [1, 5] of the same compound?
Its value is 35.9 ± 2.29 × 10^3.

What about the “number of living cells” value [1, 6] of the same compound?
The value was 36.3 ± 2.08 × 10^3.

And the “number of living cells” value [1, 7]?
Its value is 39.6 ± 2.74 × 10^3.

What about the “number of living cells” value [1, 8] of the same compound?
Its value is 43.6 ± 3.21 × 10^3.

And the “number of living cells” value [1, 9]?
The value was 44.2 ± 3.35 × 10^3.

And the “number of living cells” value [1, 10]?
The value was 44.9 ± 3.02 × 10^3.

And the “solubility in the commercially available Taxol® preparation” value [2]?
Its value is “excellent solubility”.

What about the solubility in solvents [2] of the same compound?
Its solubility in solvents is “also dissolved in methanol and some methanol containing mixtures”.

Which results are given for `CC1=C(/C=C/C(C)=C/C=C/C(C)=C/C(=O)N[C@@H](CS(=O)O)C(=O)O)C(C)(C)CCC1` [Compound V, N-(all-trans-Retinoyl)-L-cysteinesulfinic acid]?
inhibition at 0.04 µM ([1]; final 4 × 10^−8 mol/L): 27.1%; inhibition at 1 µM [1]: 29.8%; inhibition at 0.1 µM ([1]; final 10^−7 mol/L): 27.6%; inhibition at 0.01 µM ([1]; final 10^−8 mol/L): 24.3%; inhibition at 0.001 µM ([1]; final 10^−9 mol/L): 16.2%; inhibition at 0.0001 µM ([1]; final 10^−10 mol/L): 14.7%; inhibition at 10 pM [1, 3]: 13.3%; Cell growth inhibition % Formulation [1]: close to 55%; Cell growth inhibition % OF W/SAB [1]: close to 56%; Cell growth inhibition % OF SAB/W [1]: close to 58%; number of living cells [1, 4]: 39.6 ± 1.75 × 10^3; cell growth inhibition ([1]; sodium salt in saline): ~30%; number of living cells [1, 5]: 38.1 ± 1.86 × 10^3; number of living cells [1, 6]: 39.3 ± 1.22 × 10^3; number of living cells [1, 7]: 41.1 ± 2.34 × 10^3; number of living cells [1, 8]: 45.5 ± 2.80 × 10^3; number of living cells [1, 9]: 46.3 ± 2.49 × 10^3; number of living cells [1, 10]: 47.1 ± 2.41 × 10^3; solubility in the commercially available Taxol® preparation [2]: excellent solubility; solubility in solvents [2]: soluble only in mixtures containing water

Which inhibition at 0.04 µM ([1]; final 4 × 10^−8 mol/L) does the source give for `CC1=C(/C=C/C(C)=C/C=C/C(C)=C\C(=O)N[C@@H](CS(=O)O)C(=O)O)C(C)(C)CCC1` [Compound VI, N-(13-cis-Retinoyl)-L-cysteinesulfinic acid] here?
The inhibition at 0.04 µM was 24.9%.

And the inhibition at 1 µM [1]?
The inhibition at 1 µM was 27.3%.

What about the inhibition at 0.1 µM ([1]; final 10^−7 mol/L) of the same compound?
Its inhibition at 0.1 µM is 25.8%.

What about the inhibition at 0.01 µM ([1]; final 10^−8 mol/L) of the same compound?
Its inhibition at 0.01 µM is 22.4%.

What about the inhibition at 0.001 µM ([1]; final 10^−9 mol/L) of the same compound?
Its inhibition at 0.001 µM is 14%.

What about the inhibition at 0.0001 µM ([1]; final 10^−10 mol/L) of the same compound?
The inhibition at 0.0001 µM was 13.7%.

What about the inhibition at 10 pM [1, 3] of the same compound?
Its inhibition at 10 pM is 12.3%.

And the “Cell growth inhibition % Formulation” value [1]?
The value was “close to 55%”.

What about the “Cell growth inhibition % OF W/SAB” value [1] of the same compound?
Its value is “close to 56%”.

What about the “Cell growth inhibition % OF SAB/W” value [1] of the same compound?
Its value is “close to 58%”.

What about the “number of living cells” value [1, 4] of the same compound?
The value was 39.6 ± 2.70 × 10^3.

What about the cell growth inhibition ([1]; sodium salt in saline) of the same compound?
Its cell growth inhibition is roughly 30%.

And the “number of living cells” value [1, 5]?
Its value is 38.3 ± 2.34 × 10^3.

What about the “number of living cells” value [1, 6] of the same compound?
Its value is 39.1 ± 2.16 × 10^3.

What about the “number of living cells” value [1, 7] of the same compound?
Its value is 40.9 ± 2.88 × 10^3.

What about the “number of living cells” value [1, 8] of the same compound?
Its value is 45.3 ± 2.55 × 10^3.

And the “number of living cells” value [1, 9]?
The value was 45.5 ± 2.68 × 10^3.

What about the “number of living cells” value [1, 10] of the same compound?
Its value is 46.2 ± 3.54 × 10^3.

And the “solubility in the commercially available Taxol® preparation” value [2]?
Its value is “excellent solubility”.

And the solubility in solvents [2]?
The solubility in solvents was “soluble only in mixtures containing water”.
